Results as given in patent publication US9949979B2, “Use of inhibitors of the activity or function of PI3K” (NOVARTIS AG, priority 2011, dated 2018).

Biological target: PI3K delta (Homo sapiens, UniProt O00329)
Assay: PI3K delta inhibition in Rat1-myr-HA-p110 delta cells (Akt Ser473 phosphorylation, AlphaScreen SureFire)
Type: cell-based
Design: myristylation signal (myr) (N); HA tag (N); expressed in transfected cells; host or cells: Rat1 cells, stably transfected
Conditions: read-out: Cell PI3Kδ/ IC50
Procedure: Untreated cells were used as low controls, cells stimulated in absence of compounds were used as high controls. […] Cell lysates were either used immediately of stored frozen (in sealed plates) at −20° C. until use. […] Addition of AlphaScreen® SureFire® reagents was done according to the manufacturer's protocol. First, 5 ul of reaction buffer plus activation buffer mix containing AlphaScreen® acceptor beads was added, the plate was sealed, and incubated on a plate shaker for 2 hours at room temperature. […] The difference between high and low controls was taken as 100% and compound effects were expressed as percent inhibition. IC50 values were determined from the dose response curves by graphical extrapolation.

Chain of PI3K delta (O00329 whole entry): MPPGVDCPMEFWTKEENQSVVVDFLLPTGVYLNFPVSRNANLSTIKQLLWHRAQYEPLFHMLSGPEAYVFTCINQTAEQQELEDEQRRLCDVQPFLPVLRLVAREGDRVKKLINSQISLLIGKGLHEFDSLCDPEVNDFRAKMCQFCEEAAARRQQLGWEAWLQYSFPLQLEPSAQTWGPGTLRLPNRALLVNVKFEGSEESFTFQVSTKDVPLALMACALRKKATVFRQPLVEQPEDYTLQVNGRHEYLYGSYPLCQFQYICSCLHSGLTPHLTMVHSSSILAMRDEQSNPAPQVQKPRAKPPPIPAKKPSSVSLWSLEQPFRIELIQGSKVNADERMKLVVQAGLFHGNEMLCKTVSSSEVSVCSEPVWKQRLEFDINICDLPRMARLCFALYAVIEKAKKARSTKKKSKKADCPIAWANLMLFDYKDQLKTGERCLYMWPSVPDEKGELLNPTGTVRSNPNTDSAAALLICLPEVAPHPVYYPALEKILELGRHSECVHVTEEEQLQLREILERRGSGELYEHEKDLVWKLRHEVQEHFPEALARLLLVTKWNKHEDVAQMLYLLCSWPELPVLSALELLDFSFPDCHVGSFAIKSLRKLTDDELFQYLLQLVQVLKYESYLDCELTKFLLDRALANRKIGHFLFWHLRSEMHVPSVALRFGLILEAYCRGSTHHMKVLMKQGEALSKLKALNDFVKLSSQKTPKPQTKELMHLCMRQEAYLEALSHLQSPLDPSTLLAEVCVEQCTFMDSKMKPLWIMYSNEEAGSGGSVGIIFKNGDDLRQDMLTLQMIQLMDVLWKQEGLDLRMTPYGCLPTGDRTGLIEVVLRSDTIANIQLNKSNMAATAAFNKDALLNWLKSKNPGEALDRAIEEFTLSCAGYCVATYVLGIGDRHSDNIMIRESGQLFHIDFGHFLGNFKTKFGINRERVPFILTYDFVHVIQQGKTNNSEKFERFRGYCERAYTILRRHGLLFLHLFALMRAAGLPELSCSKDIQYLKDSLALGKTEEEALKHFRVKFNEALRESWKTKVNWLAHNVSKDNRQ
Chain of PI3K delta (Q63787 whole entry partner): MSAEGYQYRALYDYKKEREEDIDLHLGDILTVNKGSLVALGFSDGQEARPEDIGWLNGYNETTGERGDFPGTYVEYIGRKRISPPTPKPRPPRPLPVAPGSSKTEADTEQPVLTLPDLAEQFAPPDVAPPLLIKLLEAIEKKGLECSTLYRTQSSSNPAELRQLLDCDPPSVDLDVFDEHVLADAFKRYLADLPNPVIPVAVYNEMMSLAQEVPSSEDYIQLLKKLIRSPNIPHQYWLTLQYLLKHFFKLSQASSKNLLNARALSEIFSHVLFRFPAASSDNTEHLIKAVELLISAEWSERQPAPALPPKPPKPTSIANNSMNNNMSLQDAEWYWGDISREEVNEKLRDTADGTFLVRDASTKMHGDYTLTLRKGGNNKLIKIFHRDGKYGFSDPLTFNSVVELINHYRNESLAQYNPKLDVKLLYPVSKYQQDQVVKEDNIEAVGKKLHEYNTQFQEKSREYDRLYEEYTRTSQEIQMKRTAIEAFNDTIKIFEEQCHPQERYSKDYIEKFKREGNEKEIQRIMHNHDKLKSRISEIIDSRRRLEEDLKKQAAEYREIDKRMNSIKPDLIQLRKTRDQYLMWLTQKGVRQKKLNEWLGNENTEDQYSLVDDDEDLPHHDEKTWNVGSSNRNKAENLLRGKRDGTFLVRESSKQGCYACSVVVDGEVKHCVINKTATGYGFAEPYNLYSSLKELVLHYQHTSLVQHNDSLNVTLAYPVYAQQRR

With `COc1ncc(N2CCc3ncnc(O[C@H]4CCN(C(=O)c5cn(C)cn5)C4)c3C2)cc1C` [Example 20, {(S)-3-[6-(6-Methoxy-5-methyl-pyridin-3-yl)-5,6,7,8-tetrahydro-pyrido[4,3-d]pyrimidin-4-yloxy]-pyrrolidin-1-yl}-(1-methyl-1H-imidazol-4-yl)-methanone] the IC50 was 254 nM.
